From patent US9169262B2, “Crystalline salts of Asenapine with organic di-acids and tri-acids” (SANDOZ AG, priority 2011, dated 2015)
Structures can show the parent of a compound that is named as a salt.

Assays:
[1] = Polymorphic stability: suspension equilibration in water, PXRD; type: physicochemical; conditions: 25° C., 600 rpm, two days
[2] = Water uptake / hygroscopicity by dynamic vapor sorption; type: physicochemical; conditions: for hygroscopic nature: dynamic vapor sorption; for water uptake (dynamic vapor sorption): up to 95% rel. humidity, citrate: most uptake above 80% relative humidity
From the text: The hygroscopic nature of the citrate salt was investigated by dynamic vapor sorption.

[3] = Polymorphic stability: stirring in acetonitrile or organic solvent mixture, PXRD; conditions: for polymorph conversion in acetonitrile (PXRD): suspension in acetonitrile, room temperature, five days; for polymorph conversion in acetonitrile-acetone 1:1 (PXRD): suspension stirred at room/ambient temperature, four days
Experimental: The stability test is carried out by stirring the sample salt at 600 rpm in an amount of approximately 0.1 g/ml acetonitrile and optionally water as defined above. After 96 hours of stirring, the salt is removed by filtration and is dried and then subjected to X-ray powder diffraction analysis.

[4] = 23° C., pH=4.4; cited from earlier work
[5] = Solubility of Asenapine maleate in saturated solution (literature, Funke et al.); type: physicochemical; conditions: saturated aqueous solution, water, thermodynamic from solid; maleate solubility at 23° C., pH=4.4, translated into free base
From the text: Certain crystalline addition salts of Asenapine, for instance a fumarate (EP 0569096), salts with sulfonic acids (WO98/54186), and a pamoate or hemipamoate salt (EP569096), are described in the literature. The pamoate salt is disclosed to be amorphous and the hemipamoate salt is a mixture of amorphous and crystalline phase, wherein the palmitate is described as oil. The marketed form is the maleate salt, which is disclosed to exist in polymorphic forms (WO 2006/106135). The known Asenapine salts have a low solubility in water.

[6] = listed as Asenapine citrate of the invention

CN1C[C@H]2c3ccccc3Oc3ccc(Cl)cc3[C@@H]2C1.O=C(O)CC(O)(CC(=O)O)C(=O)O [crystalline Asenapine citrate form I]
polymorph conversion in water suspension (PXRD) [1]: no phase transformation was observed | polymorph conversion in water suspension (PXRD) [1, 6]: does not change its polymorphic form | hygroscopic nature [2]: not or only very slightly hygroscopic | water uptake (dynamic vapor sorption) [2]: about 1.5% | polymorph conversion in acetonitrile (PXRD) [3]: no phase transformation was observed | polymorph conversion in acetonitrile (PXRD) [3, 6]: does not change its polymorphic form

CN1CC2c3ccccc3Oc3ccc(Cl)cc3C2C1.O=C(O)CC(=O)O (centres unmarked) [crystalline Asenapine malonate form I]
polymorph conversion in water suspension (PXRD) [1]: no phase transformation was observed | polymorph conversion in water suspension (PXRD) ([1]; listed as crystalline malonate of the invention): no polymorph conversion was observed | hygroscopic nature [2]: completely non-hygroscopic | water uptake (dynamic vapor sorption) [2]: less than 0.2% | polymorph conversion in acetonitrile-acetone 1:1 (PXRD) [3]: no phase transformation was observed | polymorph conversion in acetonitrile-acetone 1:1 (PXRD) ([3]; listed as crystalline Asenapine malonate of the invention): No polymorph conversion

CN1CC2c3ccccc3Oc3ccc(Cl)cc3C2C1 (centres unmarked) [maleate salt of Asenapine]
concentration of saturated solution [4]: 5800 µg/mL | solubility [5]: ~4100 µg/mL
